What was measured:
Format in all cases: in vitro ADME
[1] = Assay 1. Stability in Simulated Gastric Fluid (SGF); details: 1 μM, 37° C., SGF pH 1.6 with pepsin
Procedure, shortened: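 Acylated compounds at a final 1 μM (diluted from 1 mM DMSO stock) were incubated at 37 °C in SGF of pH 1.6 NaCl buffer with FaSSIF powder and 0.1 mg/mL pepsin. Aliquots were quenched with acetonitrile at T0 and regular intervals, and degradation rates were determined by LC/MS.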

[2] = Assay 2. Stability in Simulated Intestinal Fluid (SIF); details: 1 μM, 37° C., SIF pH 6.7 with pancreatin
Procedure, shortened: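 Acylated compounds at 1 μM (from 1 mM DMSO stock) in fresh SIF: FaSSIF with pancreatin in pH 6.7 phosphate buffer, agitated at 37 °C. Aliquots from T0 onward quenched with 1 volume acetonitrile; LC/MS gives degradation rates.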

[3] = Assay 3. Fecal Incubation Stability; details: 1 or 10 μM, human fecal slurry, anaerobic
Method: Assay 3. Fecal Incubation Stability. This assay was used to assess the stability of an acylated active agent in a large intestine. All experiments were performed in an anaerobic chamber containing 90% nitrogen, 5% hydrogen and 5% carbon dioxide. Human fecal matter in a slurry (15% WV) is added to 96 well plates containing YCFA media or other suitable media (1.6 mL). Compounds were added to each individual well to reach a final analyte concentration of 1 or 10 μM, and the material was mixed by pipetting. At set time points a sample was removed, quenched with acetonitrile, and analyzed by LC/MS.

CCC(=O)OC1O[C@H](C(=O)O)[C@@H](OC(=O)CC)[C@H](OC(=O)CC)[C@H]1OC(=O)CC (stereo in doubt) [Compound 80, (2S,3S,4S,5R,6S)-3,4,5,6-tetrakis(propanoyloxy)oxane-2-carboxylic Acid]
Assay 1 (SGF) (% Remaining @ 1 hours) [1]: C (C: >75% of the tested compound remaining) | Assay 2 (SIF) (% @ Remaining 4 hours) [2]: A (A: <25% of the tested compound remaining) | Assay 3 (% Remaining at 24 h) [3]: A (A: <25% of the tested compound remaining)

CCCC(=O)Oc1cc(OC(=O)CCC)c2c(c1)O[C@H](c1cc(OC(=O)CCC)c(OC(=O)CCC)c(OC(=O)CCC)c1)[C@H](OC(=O)c1cc(OC(=O)CCC)c(OC(=O)CCC)c(OC(=O)CCC)c1)C2 [Compound 3, [(2R,3R)-5,7-di(butanoyloxy)-2-[3,4,5-tri(butanoyloxy)phenyl]chroman-3-yl] 3,4,5-tri(butanoyloxy)benzoate]
Assay 1 (SGF) (% Remaining @ 1 hours) [1]: C (C: >75% of the tested compound remaining) | Assay 2 (SIF) (% @ Remaining 4 hours) [2]: C (C: >75% of the tested compound remaining) | Assay 3 (% Remaining at 24 h) [3]: C (C: >75% of the tested compound remaining)

CC(=O)O[C@@H]1[C@H](OC(C)=O)C=C(C(=O)O)C[C@H]1OC(C)=O [Compound 43, (3R,4S,5R)-3,4,5-triacetoxycyclohex-1-ene-1-carboxylic Acid]
Assay 1 (SGF) (% Remaining @ 1 hours) [1]: C (C: >75% of the tested compound remaining) | Assay 2 (SIF) (% @ Remaining 4 hours) [2]: C (C: >75% of the tested compound remaining) | Assay 3 (% Remaining at 24 h) [3]: B (B: 25-75% of the tested compound remaining)

CO[C@@H]1OC[C@@H](OC(C)=O)[C@H](OC(C)=O)[C@H]1OC(C)=O [Compound 45, (2R,3R,4S,5R)-2-methoxytetrahydro-2H-pyran-3,4,5-triyl Triacetate]
Assay 1 (SGF) (% Remaining @ 1 hours) [1]: C (C: >75% of the tested compound remaining) | Assay 2 (SIF) (% @ Remaining 4 hours) [2]: B (B: 25-75% of the tested compound remaining) | Assay 3 (% Remaining at 24 h) [3]: B (B: 25-75% of the tested compound remaining)

CO[C@H]1OC[C@@H](OC(C)=O)[C@H](OC(C)=O)[C@H]1OC(C)=O [Compound 46, (2S,3R,4S,5R)-2-methoxytetrahydro-2H-pyran-3,4,5-triyl Triacetate]
Assay 1 (SGF) (% Remaining @ 1 hours) [1]: C (C: >75% of the tested compound remaining) | Assay 2 (SIF) (% @ Remaining 4 hours) [2]: B (B: 25-75% of the tested compound remaining) | Assay 3 (% Remaining at 24 h) [3]: B (B: 25-75% of the tested compound remaining)

CCC(=O)O[C@H]1O[C@H](C(=O)O)[C@@H](OC(=O)CC)[C@H](OC(=O)CC)[C@H]1OC(=O)CC [Compound 79, (2S,3S,4S,5R,6R)-3,4,5,6-tetrakis(propanoyloxy)oxane-2-carboxylic Acid]
Assay 1 (SGF) (% Remaining @ 1 hours) [1]: C (C: >75% of the tested compound remaining) | Assay 2 (SIF) (% @ Remaining 4 hours) [2]: A (A: <25% of the tested compound remaining) | Assay 3 (% Remaining at 24 h) [3]: A (A: <25% of the tested compound remaining)

CCCC(=O)O[C@H]1[C@H](OC)OC[C@@H](OC(=O)CCC)[C@H]1OC(=O)CCC [Compound 83, (2R,3R,4R,5R)-3,5-bis(butanoyloxy)-2-methoxyoxan-4-yl Butanoate]
Assay 1 (SGF) (% Remaining @ 1 hours) [1]: C (C: >75% of the tested compound remaining) | Assay 2 (SIF) (% @ Remaining 4 hours) [2]: A (A: <25% of the tested compound remaining) | Assay 3 (% Remaining at 24 h) [3]: A (A: <25% of the tested compound remaining)

CCC(=O)O[C@H]1[C@H](OC)OC[C@@H](OC(=O)CC)[C@H]1OC(=O)CC [Compound 84, (2R,3R,4R,5R)-2-methoxy-3,5-bis(propanoyloxy)oxan-4-yl Propanoate]
Assay 1 (SGF) (% Remaining @ 1 hours) [1]: C (C: >75% of the tested compound remaining) | Assay 2 (SIF) (% @ Remaining 4 hours) [2]: C (C: >75% of the tested compound remaining) | Assay 3 (% Remaining at 24 h) [3]: B (B: 25-75% of the tested compound remaining)

CCCC(=O)O[C@@H]1[C@@H](OC(=O)CCC)[C@@H](OC)OC[C@@H]1OC(=O)CCC [Compound 85, (2S,3R,4S,5S)-3,5-bis(butanoyloxy)-2-methoxyoxan-4-yl Butanoate]
Assay 1 (SGF) (% Remaining @ 1 hours) [1]: B (B: 25-75% of the tested compound remaining) | Assay 2 (SIF) (% @ Remaining 4 hours) [2]: B (B: 25-75% of the tested compound remaining) | Assay 3 (% Remaining at 24 h) [3]: B (B: 25-75% of the tested compound remaining)

CCC(=O)O[C@@H]1[C@@H](OC(=O)CC)[C@@H](OC)OC[C@@H]1OC(=O)CC [Compound 86, (2S,3R,4S,5S)-2-methoxy-3,5-bis(propanoyloxy)oxan-4-yl Propanoate]
Assay 1 (SGF) (% Remaining @ 1 hours) [1]: C (C: >75% of the tested compound remaining) | Assay 2 (SIF) (% @ Remaining 4 hours) [2]: B (B: 25-75% of the tested compound remaining) | Assay 3 (% Remaining at 24 h) [3]: C (C: >75% of the tested compound remaining)

CCCC(=O)OC[C@H]1O[C@H](OC)[C@H](OC(=O)CCC)[C@@H](OC(=O)CCC)[C@@H]1OC(=O)CCC [Compound 87, [(2R,3R,4S,5R,6S)-3,4,5-tris(butanoyloxy)-6-methoxyoxan-2-yl]methyl Butanoate]
Assay 1 (SGF) (% Remaining @ 1 hours) [1]: B (B: 25-75% of the tested compound remaining) | Assay 2 (SIF) (% @ Remaining 4 hours) [2]: A (A: <25% of the tested compound remaining) | Assay 3 (% Remaining at 24 h) [3]: A (A: <25% of the tested compound remaining)

CCC(=O)OC[C@H]1O[C@H](OC)[C@H](OC(=O)CC)[C@@H](OC(=O)CC)[C@@H]1OC(=O)CC [Compound 88, [(2R,3R,4S,5R,6S)-6-methoxy-3,4,5-tris(propanoyloxy)oxan-2-yl]methyl Propanoate]
Assay 1 (SGF) (% Remaining @ 1 hours) [1]: C (C: >75% of the tested compound remaining) | Assay 2 (SIF) (% @ Remaining 4 hours) [2]: A (A: <25% of the tested compound remaining) | Assay 3 (% Remaining at 24 h) [3]: A (A: <25% of the tested compound remaining)

CCC(=O)OC[C@H]1O[C@H](OC)[C@H](OC(=O)CC)[C@@H](OC(=O)CC)[C@H]1OC(=O)CC [Compound 90, [(2R,3S,4S,5R,6S)-6-methoxy-3,4,5-tris(propanoyloxy)oxan-2-yl]methyl Propanoate]
Assay 1 (SGF) (% Remaining @ 1 hours) [1]: C (C: >75% of the tested compound remaining) | Assay 2 (SIF) (% @ Remaining 4 hours) [2]: A (A: <25% of the tested compound remaining) | Assay 3 (% Remaining at 24 h) [3]: A (A: <25% of the tested compound remaining)

C[C@@H]1OC(O)[C@@H](OC(=O)CCc2c[nH]c3ccccc23)[C@H](OC(=O)CCc2c[nH]c3ccccc23)[C@@H]1OC(=O)CCc1c[nH]c2ccccc12 (stereo partly drawn) [Compound 95, (2S,3R,4R,5S)-6-hydroxy-4,5-bis({[3-(1H-indol-3-yl)propanoyl]oxy})-2-methyloxan-3-yl 3-(1H-indol-3-yl)propanoate]
Assay 1 (SGF) (% Remaining @ 1 hours) [1]: C (C: >75% of the tested compound remaining) | Assay 2 (SIF) (% @ Remaining 4 hours) [2]: A (A: <25% of the tested compound remaining) | Assay 3 (% Remaining at 24 h) [3]: C (C: >75% of the tested compound remaining)

CCC(=O)O[C@@H]1[C@H](OC)OC[C@@H](OC(=O)CC)[C@H]1OC(=O)CC [Compound 101, (2R,3S,4R,5R)-2-methoxy-3,5-bis(propanoyloxy)oxan-4-yl Propanoate]
Assay 1 (SGF) (% Remaining @ 1 hours) [1]: C (C: >75% of the tested compound remaining) | Assay 2 (SIF) (% @ Remaining 4 hours) [2]: A (A: <25% of the tested compound remaining) | Assay 3 (% Remaining at 24 h) [3]: B (B: 25-75% of the tested compound remaining)

CCCC(=O)O[C@@H]1[C@@H](OC(=O)CCC)[C@H](C)O[C@H](OC(=O)CCc2c[nH]c3ccccc23)[C@@H]1OC(=O)CCC [Compound 119, (2R,3R,4R,5S,6S)-4,5-bis(butanoyloxy)-2-{[3-(1H-indol-3-yl)propanoyl]oxy}-6-methyloxan-3-yl Butanoate]
Assay 1 (SGF) (% Remaining @ 1 hours) [1]: B (B: 25-75% of the tested compound remaining) | Assay 3 (% Remaining at 24 h) [3]: A (A: <25% of the tested compound remaining)

CCCC(=O)O[C@H]1[C@H](OC(=O)CCC)[C@@H](OC(=O)CCc2c[nH]c3ccccc23)O[C@@H](C)[C@H]1OC(=O)CCC [Compound 120, (2R,3S,4R,5R,6S)-4,5-bis(butanoyloxy)-2-{[3-(1H-indol-3-yl)propanoyl]oxy}-6-methyloxan-3-yl Butanoate]
Assay 1 (SGF) (% Remaining @ 1 hours) [1]: B (B: 25-75% of the tested compound remaining) | Assay 3 (% Remaining at 24 h) [3]: A (A: <25% of the tested compound remaining)

CCCC(=O)O[C@@H]1[C@@H](OC(=O)CCC)[C@H](OC(=O)CCc2c[nH]c3ccccc23)OC[C@H]1OC(=O)CCC [Compound 129, (2S,3R,4S,5R)-4,5-bis(butanoyloxy)-2-{[3-(1H-indol-3-yl)propanoyl]oxy}oxan-3-yl Butanoate]
Assay 1 (SGF) (% Remaining @ 1 hours) [1]: B (B: 25-75% of the tested compound remaining) | Assay 3 (% Remaining at 24 h) [3]: A (A: <25% of the tested compound remaining)

CCC(=O)OC[C@H]1O[C@H](OC(=O)/C=C/c2c[nH]c3ccccc23)[C@H](OC(=O)CC)[C@@H](OC(=O)CC)[C@@H]1OC(=O)CC [Compound 131, (2R,3R,4S,5R,6R)-3,4,5-tris(propanoyloxy)-6-[(propanoyloxy)methyl]oxan-2-yl (2E)-3-(1H-indol-3-yl)prop-2-enoate]
Assay 1 (SGF) (% Remaining @ 1 hours) [1]: B (B: 25-75% of the tested compound remaining) | Assay 3 (% Remaining at 24 h) [3]: A (A: <25% of the tested compound remaining)

CCC(=O)O[C@@H]1[C@@H](OC(=O)CC)[C@H](OC(=O)/C=C/c2c[nH]c3ccccc23)OC[C@@H]1OC(=O)CC [Compound 132, (2S,3R,4S,5S)-3,4,5-tris(propanoyloxy)oxan-2-yl (2E)-3-(1H-indol-3-yl)prop-2-enoate]
Assay 1 (SGF) (% Remaining @ 1 hours) [1]: B (B: 25-75% of the tested compound remaining) | Assay 3 (% Remaining at 24 h) [3]: A (A: <25% of the tested compound remaining)

From patent US10953027B2, “Active agents and methods of their use for the treatment of metabolic disorders and nonalcoholic fatty liver disease” (Flagship Pioneering Innovations V, Inc., priority 2018, dated 2021)
